Biological target: T1, human TAS1R2-I191V (subunit alone) (Homo sapiens, UniProt Q8TE23, I191V)
T1 construct: expressed in transfected cells; host or cells: HEK293T-Gα16gust44
T1 sequence (Q8TE23 20-839 I191V): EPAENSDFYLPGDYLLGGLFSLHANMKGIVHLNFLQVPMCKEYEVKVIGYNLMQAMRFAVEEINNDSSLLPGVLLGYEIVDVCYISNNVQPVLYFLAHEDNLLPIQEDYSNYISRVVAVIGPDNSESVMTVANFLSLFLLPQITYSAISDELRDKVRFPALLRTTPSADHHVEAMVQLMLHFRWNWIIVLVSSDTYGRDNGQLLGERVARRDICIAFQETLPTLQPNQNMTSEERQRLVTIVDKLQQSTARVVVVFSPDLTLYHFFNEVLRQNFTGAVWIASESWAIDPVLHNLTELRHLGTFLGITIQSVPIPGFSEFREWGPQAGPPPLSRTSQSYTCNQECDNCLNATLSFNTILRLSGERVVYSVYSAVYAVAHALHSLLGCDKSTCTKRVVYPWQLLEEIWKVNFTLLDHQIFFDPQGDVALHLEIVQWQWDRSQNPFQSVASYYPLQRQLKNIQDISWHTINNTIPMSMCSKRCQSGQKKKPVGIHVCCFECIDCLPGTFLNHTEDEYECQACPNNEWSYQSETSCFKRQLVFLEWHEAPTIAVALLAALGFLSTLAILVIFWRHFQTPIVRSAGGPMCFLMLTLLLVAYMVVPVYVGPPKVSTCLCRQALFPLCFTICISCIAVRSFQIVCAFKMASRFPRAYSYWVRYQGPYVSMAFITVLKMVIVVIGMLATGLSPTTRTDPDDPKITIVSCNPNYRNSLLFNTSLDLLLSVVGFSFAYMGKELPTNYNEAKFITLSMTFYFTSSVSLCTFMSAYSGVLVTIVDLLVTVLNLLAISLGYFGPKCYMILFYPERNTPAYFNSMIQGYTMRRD
Assay: Calcium mobilisation assay, TAS1R2-I191V subunit alone
Assay type: cell-based
Source text: The coding sequences for TAS1R2 and TAS1R3 were commercially synthesised, and the human codon was optimised for expression in human cells. The coding sequences of human TAS1R2 and TAS1R3 were subcloned and inserted into the mammalian expression vectors pcDNA6/myc-HisA and pcDNA4/myc-HisA (Invitrogen; Thermo Fisher Scientific; Illkirch, France) between the EcoRI and NotI restriction sites, generating the plasmids pcDNA6-TAS1R2 and pcDNA4-TAS1R3, respectively. To increase protein expression in mammalian cells, an upstream start codon was used, which was a sequence called MAX, corresponding to the QBI SP163 element also described in pcDNA4-HisMax (Invitrogen; Thermo Fisher Scientific; Illkirch, France). To measure the expression level of the receptor by immunohistochemistry, we used the FLAG sequence ([…]) in the C-terminal position, which encodes the FLAG tag epitope. […]
The HEK293T cells were kindly provided by Jay P. Slack (Givaudan Flavors Corporation; Cincinnati, OH, USA). […] The fluorescence intensity was measured for 90 s (excitation 488 nm, emission 510 nm) in an automated fluorometric FlexStation®3 Multi-Mode microplate reader (Molecular Devices; San Jose, CA, USA). […] The Ca^2+ changes were expressed as fractional changes in fluorescent light intensity: ΔF/F = (F − F0)/F0, where F was the fluorescent light intensity at each point, and F0 was the value of emitted fluorescent light prior to stimulus application. To calculate dose–response relationships, the changes in fluorescence upon stimulus application were averaged, mock-subtracted and baseline-corrected. […] The half-maximal effective concentrations (EC50 values) and maximal signal amplitudes were calculated using SigmaPlot software (version 15.0) (Systat Software; San Jose, CA, USA).
For in vitro calcium mobilisation assay performed on hTAS1R2-SNPs, hTAS1R3-SNPs and mTAS1R3-I60T, 6 to 7 concentrations were tested for each sweet compound, plus buffer alone. All concentration–receptor combinations were measured in duplicate, and each experiment was repeated at least 4 times (8 wells/concentration). […]

EC50: 390 ± 47 µM | R1 = Variant EC50/WT EC50: 4.3 | Max ΔF/F0 (maximal signal amplitude): 0.19 ± 0.01
Compound: C=C(C)[C@@H]1CC=C(/C=N/O)CC1 [Perillartine, perillartine]
